Reference: patent US20260297136A1, “PEPTIDES WITH LIPOLYTIC, ANTI-LIPOGENIC, ANTIFIBROTIC AND ANTI-INFLAMMATORY ACTIVITY” (FUNDACIÓ HOSPITAL UNIVERSITARI VALL D'HEBRON - INSTITUT DE …, priority 2023, published 2026)

What was measured:
HepG2 cells [1] = experiment: Hepatic lipogenesis gene expression (ACC, FAS, ACLY mRNA by RTPCR) in HepG2 cells, Example 2; format: cell-based, human; details: 10 μM, 24 h, relative to 18S
Description: FIG. 5 Human hepatoblastoma cell line HepG2 was treated with vehicle (DMSO) or 10 μM of GP4, GP7, GP8 or GP9 for 24 h. RNA was extracted and mRNA levels of Acetyl-CoA Carboxylase (ACC), Fatty Acid Synthase (FAS) and ATP-Citrate Lyase (ACLY) relative to 18S were measured by RTPCR.
Cell culture reagents were from Life Technologies Inc (Invitrogen SA, Barcelona, Spain). HepG2 hepatoblastoma cells (cat. no. HB-8065; ATCC, LGC Standards SLU, Barcelona, Spain) were maintained in Dulbecco's modified Eagle medium (DMEM) supplemented with 10% fetal bovine serum and antibiotics. HepG2 cells were treated with vehicle or 10 μM of GP4, GP7, GP8 and GP9 for 24 h. LX-2 human hepatic stellate cells (SCC064) were maintained in DMEM supplemented with 2% fetal bovine serum and antibiotics. For experiments, LX-2 were cultured for 24 h in DMEM 0.2% FBS and treated for 24 h with vehicle or TGFβ1 (20 ng/ml) in the absence or presence of 8 μM of GP4, GP7, GP8 and GP9 for 24 h. At the end of the experiment's cells were harvested for gene expression analysis.
Total RNA was extracted from HepG2 and LX-2 cells using TRIzol reagent (Invitrogen SA). Reverse transcription was performed at 42° C. for 50 minutes using […] of total RNA, 200 U of Superscript II, and an oligo-dT primer and reagents provided by Invitrogen. An aliquot of the reverse transcription product was amplified in a […] reaction using SYBRGreen (Invitrogen SA) with appropriate oligonucleotide primer pairs corresponding to human ACC, FAS, ACLY, Col1A1 and 18S (shown in table 7). Results were analyzed using the 7000 Sequence Detection System program (Applied Biosystems, Thermo Fisher Scientific, Barcelona, Spain) (Sex Hormone-Binding Globulin Reduction in Metabolic Disorders May Play a Role in NAFLD Development.Saez-Lopez C, Barbosa-Desongles A, Hernandez C, Dyer R A, Innis S M, Simo R, Selva D M. Endocrinology. 2017 Mar. 1; 158(3):545-559. doi: 10.1210/en.2016-1668).

human mature adipocytes = experiment: Lipolysis in human mature adipocytes (glycerol production), Example 2; format: cell-based; details: 10 μM, 16 h, with respect to control cells
Description: FIG. 7. Mature human subcutaneous adipocytes were treated with vehicle (DMSO), 3 μM of Isoproterenol or 10 μM of GP4, GP8 or GP9 for 16 h. Glycerol concentration was assessed using a Lipolysis Assay Kit (Tebu-bio). Lipolysis induction was calculated with respect to the control cells treated with DMSO.
Human preadipocytes and cell culture reagents were from purchased from Tebu-Bio (Tebu-bio, Barcelona, Spain) and differentiation protocol was done following the manufacturer's instructions. Human adipocytes were maintained in a humidified incubator with 5% CO2 at 37° C. (Sex hormone-binding globulin overexpression protects against high-fat diet-induced obesity in transgenic male mice. Saez-Lopez C, Villena J A, Simo R, Selva D M. J Nutr Biochem. 2020 November; 85:108480. doi: 10.1016/j.jnutbio.2020.108480).
Lipolysis assays were performed using a Lipolysis Kit (Tebu-Bio) following the manufacturer's instructions as previously described.

HepG2 cells [2] = experiment: Hepatic lipogenic key enzymes in HepG2 cells in the presence of 30 mM fructose (2 h), Example 7; format: cell-based, human; details: 40 μg/ml
Description: FIG. 34. Effects of different peptides and SHBG in reducing hepatic lipogenic key enzymes in the presence of 30 mM fructose. Each bar within each group represents mRNA levels of a key hepatic lipogenic enzyme, from left to right: Acetyl-CoA Carboxylase (ACC), ATP Citrate Lyase (ACLY) and Fatty Acid Synthase (FAS), and a key transcription factor regulating several lipogenic enzymes such as PPARγ (PPARγ).
(§1) Cell culture reagents were from Life Technologies Inc (Invitrogen SA, Barcelona, Spain). HepG2 hepatoblastoma cells (cat. no. HB-8065; ATCC, LGC Standards SLU, Barcelona, Spain) were maintained in Dulbecco's modified Eagle medium (DMEM) supplemented with 10% fetal bovine serum and antibiotics.
(§2) • HepG2 cells were cultured for 5 day in the absence or presence of 30 mM fructose. Cells cultured in 30 mM fructose were daily treated with vehicle, Telmisartan, Semaglutide or EDL6D. • HepG2 cells were cultured for 24 h in the absence or presence of GP6 (40 μg/ml), GP10 (40 μg/ml), GP11 (40 μg/ml), GP12 (40 μg/ml), GP13 (40 μg/ml) or SHBG (20 nM). • HepG2 cells were cultured in the absence or presence of 30 mM fructose and treated for 2 h with vehicle or GP4 (40 μg/ml), GP6 (40 μg/ml), GP7 (40 μg/ml), GP8 (40 μg/ml), GP9 (40 μg/ml), GP10 (40 μg/ml), GP11 (40 μg/ml), GP12 (40 μg/ml), GP13 (40 μg/ml) or SHBG (20 nM).
(§3) Total RNA was extracted from HepG2 and LX-2 cells using TRIzol reagent (Invitrogen SA). Reverse transcription was performed at 42° C. for 50 minutes using […] of total RNA, 200 U of Superscript II, and an oligo-dT primer and reagents provided by Invitrogen. An aliquot of the reverse transcription product was amplified in a […] reaction using SYBRGreen (Invitrogen SA) with appropriate oligonucleotide primer pairs corresponding to human SHBG, ACC, FAS, ACLY, PPARG, and 18S and mouse ACC, FAS, ACLY, PPARG, Col1A1 and 18S. Results were analyzed using the 7000 Sequence Detection System program (Applied Biosystems, Thermo Fisher Scientific, Barcelona, Spain) (Shez-Lopez et al Endocrinology 2017).

[3] = tested on: obesity and fatty liver disease mouse model; experiment: Therapeutic effects in an obesity and fatty liver disease mouse model, Example 6; format: in vivo, C57BL6/J male mice; details: Telmisartan 5 mg/kg/day in drinking water, 10 weeks
Description: C57BL6/J male mice were purchased and kept for quarantine and acclimatization for a period of about 7 days before initiation of every experiment. Mice were housed in clean and sterilized mice cages and maintained in a controlled environment with 22+3° C. temperature, 50+20% humidity, a light/dark cycle of 12 hours each and 15-20 fresh air changes per hour.
For Obesity and NAFLD induction, the animals were fed ad libitum, either with chow diet (150SP-10, Safe Diets) or 45% high-fat diet (TD.190179, Envigo) plus 30% fructose (F0127, Sigma Aldrich) in drinking water for 20 weeks. The therapeutic effect of a daily subcutaneous injection of GP6 (20 mg/kg/day) in this mouse model was assessed for 10 weeks, starting the treatment on week 10 of the experiment until week 20.
A group of control mice (n=10) was fed with control diet and regular drinking water and a group of mice (n=30) obesity and fatty liver disease was induced for 10 weeks. At this point, mice were randomly divided in three groups of n=10, the first group was treated with daily subcutaneous injections of vehicle (water), the second group was treated with Telmisartan (5 mg/kg/day) in the drinking water and a subcutaneous injection of vehicle, and the third group with daily subcutaneous injection of GP6 (20 mg/kg/day) during 10 weeks.
At the end of the experiment mice were sacrificed, serum samples were extracted, tissues were weighted and part was fixed in paraformaldehyde for histology studies and part immediately frozen at −80 C for mRNA and protein expression studies as well as assessment of triglycerides.
The histology studies, AST and ALT measurements, TG measurements, and the RNA analysis were performed as described in Example 4.

HepG2 cells [4] = experiment: Hepatic lipogenesis gene expression in HepG2 cells (24 h), Example 7; format: cell-based, human; details: 40 μg/ml, vs vehicle
From the text: FIG. 32. Effect of GP6 and modified peptides on hepatic lipogenesis in HepG2 cells. Each bar within each group represents mRNA levels of a key hepatic lipogenic enzyme, from left to right: Acetyl-CoA Carboxylase (ACC), ATP Citrate Lyase (ACLY) and Fatty Acid Synthase (FAS), and a key transcription factor regulating several lipogenic enzymes such as PPARγ (PPARγ).
as §1, §2, §3

Compound	ATP-Citrate Lyase (ACLY) mRNA levels (HepG2 cells [1])	Acetyl-CoA Carboxylase (ACC) mRNA levels (HepG2 cells [1])	Fatty Acid Synthase (FAS) mRNA levels (HepG2 cells [1])	increase of glycerol production (lipolysis) (human mature adipocytes)	fructose-induced expression of ACC (HepG2 cells [2])	fructose-induced expression of ACLY (HepG2 cells [2])	fructose-induced expression of FAS (HepG2 cells [2])	fructose-induced expression of PPARγ (HepG2 cells [2])	liver triglyceride (TAG) content [3]	liver weight [3]	Total body weight versus control mice ([3]; vs control diet mice)	serum glucose levels ([3]; vs vehicle)	ACC mRNA levels (HepG2 cells [4])	ACLY mRNA levels (HepG2 cells [4])	FAS mRNA levels (HepG2 cells [4])	PPARγ mRNA levels (HepG2 cells [4])
CC[C@@H](C)[C@@H](NC(=O)[C@@H](CCCCN)NC(=O)[C@H](NC(=O)[C@@H](CC(C)C)NC(=O)[C@@H](CC(=O)O)NC(=O)[C@@H](Cc1ccccc1)NC(=O)[C@H](NC(=O)[C@@H](CCSC)NC(=O)[C@H](N)C(C)C)[C@H](C)O)[C@H](C)O)C(=O)N[C@@H](C(=O)N[C@H](CCCCN)C(=O)N[C@@H](C(=O)N[C@H](CO)C(=O)N[C@H](CO)C(=O)N[C@H](CO)C(=O)N[C@H](Cc1ccccc1)C(=O)N[C@H](CCC(=O)O)C(=O)N[C@@H](C(=O)N[C@H](CCCNC(=N)N)C(=O)N[C@@H](C(=O)N[C@H](Cc1c[nH]c2ccccc12)C(=O)N[C@H](CC(=O)O)C(=O)N1CCC[C@@H]1C(=O)N[C@H](CCC(=O)O)C(=O)NCC(=O)N[C@@H](C(=O)N[C@@H](C(=O)N[C@H](Cc1ccccc1)C(=O)N[C@H](Cc1ccc(O)cc1)C(=O)O)[C@H](C)CC)C(C)C)[C@H](C)O)C(C)C)[C@H](C)O)[C@H](C)O [GP4]	did not alter	reduced	increased	500%	able to reduce	able to reduce	able to reduce	able to reduce								
CC[C@@H](C)[C@@H](NC(=O)[C@H](NC(=O)CNC(=O)[C@@H](CCC(=O)O)NC(=O)[C@H]1CCCN1C(=O)[C@@H](CC(=O)O)NC(=O)[C@@H](Cc1c[nH]c2ccccc12)NC(=O)[C@H](N)[C@H](C)O)C(C)C)C(=O)N[C@H](Cc1ccccc1)C(=O)N[C@H](Cc1ccc(O)cc1)C(=O)NCC(=O)N[C@H](CC(=O)O)C(=O)N[C@@H](C(=O)N[C@H](CC(N)=O)C(=O)N1CCC[C@@H]1C(=O)N[C@H](CCCCN)C(=O)N[C@H](CC(=O)O)C(=O)N[C@H](CC(=O)O)C(=O)N[C@H](Cc1c[nH]c2ccccc12)C(=O)N[C@H](Cc1ccccc1)C(=O)O)[C@H](C)O [GP7]	reduced	reduced	increased		able to reduce the expression of ACC and ACLY more effectively than SHBG	able to reduce the expression of ACC and ACLY more effectively than SHBG	had no effect on FAS and PPARγ expression	had no effect on FAS and PPARγ expression								
CCCc1nc2c(C)cc(-c3nc4ccccc4n3C)cc2n1Cc1ccc(-c2ccccc2C(=O)O)cc1 [Telmisartan, reference compound]									failed to decrease TAG liver content	did not reduced significantly	significantly increased	did not have any effect				
ATKTSASFEVRTWDPEAVIFY [GP10]					able to reduce	able to reduce	able to reduce	able to reduce					reduced the mRNA levels	reduced the mRNA levels	reduced the mRNA levels	reduced the mRNA levels
TKTASAFEVRTWDPEGVIFY [GP12]					able to reduce	able to reduce	able to reduce	able to reduce					reduced all key lipogenic genes except FAS	reduced all key lipogenic genes except FAS		reduced all key lipogenic genes except FAS
TKTASAFEVRTWDPEGVIFYGDTNPKDDWF [GP11]					able to reduce	able to reduce	able to reduce	able to reduce					reduced the mRNA levels	reduced the mRNA levels	reduced the mRNA levels	reduced the mRNA levels
TKTSASFEVRTWDPEGVIFYADTNPKDDWF [GP13]					able to reduce the expression of ACC and ACLY more effectively than SHBG	able to reduce the expression of ACC and ACLY more effectively than SHBG	had no effect on FAS	increased PPARγ expression					able to reduce	no ACLY and PPARγ	able to reduce	no ACLY and PPARγ
